Test results: the supplement of paper PMC10307832

How the values were obtained:
Assay in all cases: relative viability (nuclei count vs DMSO), 5 days (fraction); higher = more cells survive
[1] = compound: COc1cc2ncn(-c3cc(OCc4ccccc4C(F)(F)F)c(C(N)=O)s3)c2cc1OC
In short: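 Lung cancer cell lines were seeded into 1536-well plates, kept overnight at 37 °C and pinned with five library-drug doses (not always all listed) spaced by √10. After 5 days, nuclei were Hoechst-stained, imaged at 4× and counted with MetaXpress. Viability is treated-well nuclei over vehicle-well nuclei, taken as a median across plates. Plates needed control CV below 25% and at least one doubling.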

[2] = compound: COc1cc2ncn(-c3cc(OCc4ccccc4C(F)(F)F)c(C(N)=O)s3)c2cc1OC + Cc1cc(Nc2cc(N3CCN(C)CC3)nc(Sc3ccc(NC(=O)C4CC4)cc3)n2)n[nH]1 [Tozasertib] (partner 0.1 µM)
In short: (§1)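 Relative viability divides the nuclei count in treated wells by that in vehicle wells. Lung cancer cell lines were seeded in 1536-well plates, dosed by pin tool the next day, and fixed and stained after 5 days in one step with final 0.05% Triton X-100, 1% formaldehyde and 1 ug/ml Hoechst. Dosing was a single drug or a fixed anchor-drug dose plus five library-drug doses (not always all listed) in √10 steps, and values are medians of duplicate plates imaged at 4×.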

[3] = compound: COc1cc2ncn(-c3cc(OCc4ccccc4C(F)(F)F)c(C(N)=O)s3)c2cc1OC + CC(=O)Nc1cccc(-n2c(=O)n(C3CC3)c(=O)c3c(Nc4ccc(I)cc4F)n(C)c(=O)c(C)c32)c1 [Trametinib] (partner 0.02 µM)
In short: as §1

[4] = compound: COc1cc2ncn(-c3cc(OCc4ccccc4C(F)(F)F)c(C(N)=O)s3)c2cc1OC + NC(=O)Nc1cc(-c2cccc(F)c2)sc1C(=O)N[C@H]1CCCNC1 [AZD7762] (partner 0.2 µM)
In short: as §1

| Cell Line | relative viability ([1]; 0.05 µM) | relative viability ([1]; 0.1581 µM) | relative viability ([1]; 0.5 µM) | relative viability ([1]; 1.581 µM) | relative viability ([1]; 5 µM) | relative viability ([2]; first compound 0.05 µM) | relative viability ([2]; first compound 0.1581 µM) | relative viability ([2]; first compound 0.5 µM) | relative viability ([2]; first compound 1.581 µM) | relative viability ([2]; first compound 5 µM) | relative viability ([3]; first compound 0.05 µM) | relative viability ([3]; first compound 0.1581 µM) | relative viability ([3]; first compound 0.5 µM) | relative viability ([3]; first compound 1.581 µM) | relative viability ([3]; first compound 5 µM) | relative viability ([4]; first compound 0.05 µM) | relative viability ([4]; first compound 0.1581 µM) | relative viability ([4]; first compound 0.5 µM) | relative viability ([4]; first compound 1.581 µM) | relative viability ([4]; first compound 5 µM) |
| --- | --- | --- | --- | --- | --- | --- | --- | --- | --- | --- | --- | --- | --- | --- | --- | --- | --- | --- | --- | --- |
| NCI-H1755 | 0.965 | 1.02 | 0.96 | 0.475 | 0.371 | 0.517 | 0.553 | 0.518 | 0.376 | 0.285 | 0.83 | 0.673 | 0.734 | 0.519 | 0.316 | 0.431 | 0.525 | 0.397 | 0.373 | 0.259 |
| NCI-H2087 | 1.08 | 0.923 | 0.628 | 0.135 | 0.124 | 0.255 | 0.253 | 0.144 | 0.126 | 0.114 | 0.239 | 0.196 | 0.143 | 0.0778 | 0.111 | 1.37 | 1.22 | 0.575 | 0.12 | 0.109 |
| NCI-H2228 | 1.01 | 0.853 | 0.417 | 0.166 | 0.188 | 0.291 | 0.258 | 0.133 | 0.178 | 0.201 | 0.409 | 0.268 | 0.188 | 0.116 | 0.136 |  |  |  |  |  |
| NCI-H838 | 0.971 | 1.03 | 0.764 | 0.176 | 0.153 | 0.245 | 0.258 | 0.189 | 0.25 | 0.204 | 0.518 | 0.523 | 0.412 | 0.192 | 0.0837 | 0.968 | 0.916 | 0.73 | 0.609 | 0.581 |
| NCI-H661 | 0.979 | 0.998 | 0.685 | 0.348 | 0.333 | 0.37 | 0.348 | 0.327 | 0.301 | 0.321 | 0.692 | 0.491 | 0.299 | 0.244 | 0.219 |  |  |  |  |  |
| NCI-H520 | 0.946 | 0.975 | 0.649 | 0.212 | 0.198 | 0.466 | 0.421 | 0.44 | 0.309 | 0.384 | 0.644 | 0.561 | 0.236 | 0.171 | 0.166 |  |  |  |  |  |
| EBC-1 | 0.924 | 0.929 | 0.301 | 0.19 | 0.157 |  |  |  |  |  |  |  |  |  |  |  |  |  |  |  |
| NCI-H727 | 0.991 | 0.752 | 0.687 | 0.395 | 0.417 | 0.639 | 0.565 | 0.659 | 0.445 | 0.42 | 0.431 | 0.377 | 0.338 | 0.385 | 0.396 | 0.712 | 0.495 | 0.504 | 0.527 | 0.487 |
| NCI-H1299 | 1.01 | 1.02 | 0.718 | 0.269 | 0.318 |  |  |  |  |  |  |  |  |  |  |  |  |  |  |  |
| SW 1573 | 1.06 | 0.963 | 0.547 | 0.173 | 0.325 | 0.154 | 0.179 | 0.192 | 0.174 | 0.139 | 0.545 | 0.56 | 0.41 | 0.11 | 0.0977 |  |  |  |  |  |
| COR-L23 | 1.05 | 1.03 | 0.692 | 0.128 | 0.147 | 0.213 | 0.189 | 0.13 | 0.143 | 0.139 | 0.591 | 0.286 | 0.27 | 0.105 | 0.0781 |  |  |  |  |  |
| NCI-H1650 | 0.899 | 0.951 | 0.396 | 0.19 | 0.147 | 0.304 | 0.324 | 0.221 | 0.225 | 0.154 | 0.631 | 0.515 | 0.35 | 0.143 | 0.139 |  |  |  |  |  |
| SK-LU-1 | 1.05 | 0.871 | 0.603 | 0.261 | 0.233 | 0.306 | 0.301 | 0.285 | 0.225 | 0.206 | 0.469 | 0.297 | 0.324 | 0.295 | 0.223 |  |  |  |  |  |
| IA-LM | 0.865 | 0.81 | 0.109 | 0.0808 | 0.0819 |  |  |  |  |  |  |  |  |  |  |  |  |  |  |  |
| NCI-H2009 | 0.909 | 0.905 | 0.472 | 0.232 | 0.174 | 0.625 | 0.625 | 0.353 | 0.301 | 0.227 | 0.248 | 0.251 | 0.287 | 0.129 | 0.0949 |  |  |  |  |  |
| NCI-H1563 | 1.02 | 0.984 | 0.888 | 0.865 | 0.654 |  |  |  |  |  |  |  |  |  |  |  |  |  |  |  |
| SK-MES-1 | 1.02 | 0.931 | 0.622 | 0.194 | 0.269 | 0.586 | 0.631 | 0.241 | 0.174 | 0.195 | 0.578 | 0.623 | 0.538 | 0.177 | 0.228 |  |  |  |  |  |
| ABC-1 | 0.807 | 0.937 | 0.736 | 0.311 | 0.241 | 0.219 | 0.223 | 0.155 | 0.251 | 0.255 |  |  |  |  |  | 0.782 | 0.487 | 0.741 | 0.631 | 1.01 |
| UMC-11 | 0.913 | 0.708 | 0.329 | 0.182 | 0.145 | 0.194 | 0.192 | 0.193 | 0.278 | 0.253 | 0.543 | 0.195 | 0.194 | 0.156 | 0.12 |  |  |  |  |  |
| NCI-H1792 | 1.11 | 0.894 | 0.403 | 0.16 | 0.103 |  |  |  |  |  | 0.305 | 0.43 | 0.275 | 0.0525 | 0.0332 | 0.61 | 0.71 | 0.472 | 0.0325 | 0.0304 |
| NCI-H2023 | 0.955 | 1.07 | 0.566 | 0.115 | 0.0893 | 0.24 | 0.341 | 0.164 | 0.132 | 0.0834 | 0.502 | 0.501 | 0.358 | 0.0995 | 0.0739 |  |  |  |  |  |
| COR-L 105 | 0.908 | 0.903 | 0.654 | 0.407 | 0.272 | 0.43 | 0.383 | 0.392 | 0.284 | 0.277 | 0.446 | 0.436 | 0.438 | 0.353 | 0.326 |  |  |  |  |  |
